Measurements as given in US10087233B2, “Coagulation factor VIII with reduced immunogenicity” (IMNATE SARL, priority 2012, dated 2018).
Values belong to the molecule of their own block, whether it stands above or below them.

Legend:
human iNKT cells = test: Cell cluster formation of human iNKT cells with peptide-loaded U937 cells; type: cell-based; conditions: iNKT cells with loaded U937 cells 1:1, 2 weeks, IL-2; FIG. 5
Procedure: In order to establish whether human PBMC contained cells reacting with a CD1d-binding peptide epitope, invariant NKT (iNKT) cells were prepared from a buffy coat using magnetic beads coated with an antibody specific to the Valpha24-Jalpha18 chain of the T cell receptor (so-called invariant chain).
Said human iNKT cells (10^5/condition) were then incubated with mitomycine-C treated U937 cells (Ratio 1:1) loaded with 5 μg of either peptide encompassing aminoacid residues 188-204 of human factor VIII (SEQ ID NO: 5) or with control peptide (MHCII-MOG). Incubation was carried out for 2 weeks at 37° C. in RPMI containing 10% of fetal calf serum and 50 U/ml of human recombinant IL-2.
Culture plates were examined by eye for the presence of cell clusters. […] FIG. 5 illustrates the average of three microscopic field count of this observation (minimum 10 cells/cluster).

NKT cells [1] = test: Immunization with loaded JAWS2 cells, CD4+/CD8+ lineage of DX5/CD160 cells binding CD1d tetramers; type: in vivo, factor VIII KO mice
Procedure: To determine the cell lineage to which NKT cells belonged, an experiment was performed as described in Example 2. Thus, JAWS2 cells were loaded with either peptide of SEQ ID NO: 3, B-domain-deleted factor VIII, alpha-gal-ceramide or kept unloaded before intraperitoneal (IP) injection in factor VIII KO mice (2×10^6 cells per mouse). Five days after intraperitoneal injections, the mice were sacrificed and the splenocytes prepared. Cell suspensions were then reacted with CD1d tetramers unloaded or loaded with peptide of SEQ ID NO: 3 or with alpha-gal-ceramide.
For faccs analysis, cells binding CD1d tetramers were labeled with DX5- and CD160-specific antibodies and either anti-CD4 or anti-CD8 antibodies. The table summarizes the results.

CD1d tetramers = target: T1, CD1d tetramers (Mus musculus, UniProt P11609); test: CD1d tetramers loaded with peptide, detection of NKT cells among CD4+ spleen cells; type: binding; conditions: CD4+ spleen cells of naïve mice; FIG. 1
T1 construct: purchased ProImmune
T1 sequence (P11609 22-305 limits assumed): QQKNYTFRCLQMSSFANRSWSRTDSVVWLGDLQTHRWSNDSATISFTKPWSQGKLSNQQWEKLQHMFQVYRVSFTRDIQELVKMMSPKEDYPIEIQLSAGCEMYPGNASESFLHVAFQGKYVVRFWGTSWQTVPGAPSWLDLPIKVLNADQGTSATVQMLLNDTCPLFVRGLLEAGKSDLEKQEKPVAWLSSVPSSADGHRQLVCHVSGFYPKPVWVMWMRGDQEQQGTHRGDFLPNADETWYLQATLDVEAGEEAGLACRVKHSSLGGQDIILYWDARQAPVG
T1 sequence (P01887 21-119 partner): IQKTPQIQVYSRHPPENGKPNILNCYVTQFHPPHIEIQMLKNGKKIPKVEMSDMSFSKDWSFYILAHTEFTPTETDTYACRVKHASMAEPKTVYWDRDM
Procedure: A peptide encompassing SEQ ID NO: 1 was obtained by chemical synthesis. This peptide was used to load CD1d tetramers (ProImmune) by overnight incubation.
NKT cells were prepared from the spleen of naïve mice by depletion of all CD4(−) cells using magnetic beads.
CD4+ cells were then incubated with CD1d tetramers loaded by peptide of SEQ ID NO: 1 (P28 WT in FIG. 1), which corresponds to aminoacid sequence 190 to 209.

U937 cells = test: CD1d surface expression on U937 cells incubated with peptide (FACS); type: cell-based, human; conditions: as example 4; FIG. 6
Procedure: To determine whether human antigen-presenting cells had the capacity to process and present a peptide epitope in the context of the CD1d molecule, the human macrophage cell line U937 was used.
The percentage of resting U937 cells expressing CD1d is low as detected with a specific anti-CD1d antibody. It was reasoned that, if U937 cells were incubated with a peptide having the sequence motif enabling it to bind to CD1d, then this should be detectable by increased expression of CD1d at cell surface. As observed for peptides encompassing MHC class II epitopes, the binding of a peptide stabilizes the conformation of the molecule (class II, or CD1d in the present case), allowing the complex to be anchored at cell surface and reducing its intracellular recycling.
U937 cells (7×10^5 cells) were incubated for 24h at 37° C. with 5 μg of peptide encompassing CD1d binding motifs or controls. The cells were then washed and incubated with fluorescence-labeled antibodies specific to CD1d and the number of positive cells evaluated using a FACS system.
Controls include (from left to right) unloaded U937, cells incubated with alpha-gal-ceramide and a conventional class II-restricted epitope (MHCII-MOG). The experiment includes sequences of factor VIII of either human (SEQ ID NO: 5) or mouse (SEQ ID NO: 6) origin corresponding to aminoacids 188-204 of the factor VIII sequence. […]

NKT cells [2] = test: Immunization with JAWS2 cells loaded with peptide, tetramer detection of NKT cells in spleen; type: in vivo, factor VIII KO mice; conditions: tetramers loaded with peptide, FIG. 2
Procedure: JAWS2 cells express CD1d but not MHC class II determinants.
JAWS2 cells were incubated 2 h at 37° C. with peptide of SEQ ID NO: 1 (10 μg/ml) and thoroughly washed twice. Cells were then treated with mitomycin to block cell division and washed 4 times to eliminate mitomycin. A cell suspension containing 2×10^6 cells in physiological serum was injected by the intraperitoneal route in each of a series of 3 naïve factor VIII KO mice. As a control, 3 naïve factor VIII KO mice received the same number of JAWS2 cells which had not been incubated with peptide of SEQ ID NO: 1.
Five days after IP injection, the mice were sacrificed and their spleen prepared as above using magnetic beads to eliminate all CD4(−) cells.
CD4+ cells were then incubated with tetramers loaded with peptide of SEQ ID NO: 1.

[3] = mice given JAWS2 loaded with the labelled substance, tetramers loaded with Alpha-gal-cer
[4] = mice given JAWS2 loaded with the labelled substance, tetramers loaded with Peptide SEQ ID NO: 3
[5] = mice given JAWS2 loaded with the labelled substance, unloaded tetramers
[6] = mice given unloaded JAWS2 (natural repertoire), tetramers loaded with the labelled substance

Molecule: CCCCCCCCCCCCCCCCCCCCCCCCCC(=O)N[C@@H](CO[C@H]1O[C@H](CO)[C@H](O)[C@H](O)[C@H]1O)[C@H](O)[C@H](O)CCCCCCCCCCCCCC [Alpha-gal-cer, alpha-gal-ceramide, reference compound]
presence of cell clusters (clumps of cells) (human iNKT cells): to the same extent
Number of DX5/CD160 cells, CD4+ (NKT cells [1]; [3]): 2.3 ×10^3
Number of DX5/CD160 cells, CD8+ (NKT cells [1]; [3]): 1.8 ×10^3
Number of DX5/CD160 cells, CD4+ (NKT cells [1]; [4]): 46 ×10^3
Number of DX5/CD160 cells, CD8+ (NKT cells [1]; [4]): 1.9 ×10^3
Number of DX5/CD160 cells, CD4+ (NKT cells [1]; [5]): 0.1 ×10^3
Number of DX5/CD160 cells, CD8+ (NKT cells [1]; [5]): 0 ×10^3
Number of DX5/CD160 cells, CD4+ (NKT cells [1]; [6]): 1.2 ×10^3
Number of DX5/CD160 cells, CD8+ (NKT cells [1]; [6]): 1.3 ×10^3

Molecule: KTQTLHKFILLFAVFDE (listed as Homo sapiens) [SEQ ID NO: 5, human factor VIII 188-204]
presence of cell clusters (clumps of cells) (human iNKT cells): clumps of cells form

Molecule: QTLHKFILLFAVFDEGKSWH (listed as Homo sapiens) [SEQ ID NO: 1, human factor VIII 190-209]
% of CD4+ T cells detected by CD1d tetramers loaded with peptide (CD1d tetramers): ~1%
proportion of NKT cells specific for peptide when peptide is presented by JAWS2 cells (NKT cells [2]; 5 days after IP injection of 2×10^6 peptide-loaded JAWS2 cells): 16%
proportion of NKT cells specific for peptide, natural repertoire (NKT cells [2]; control mice given JAWS2 cells not incubated with peptide): 8%

Further lines, with some results ahead:

CD1d binding motif / NKT cells detected by peptide-loaded tetramers (in words) (CD1d tetramers): limited though significant
Molecule: AVFDEGKSWHS (homo sapiens) [SEQ ID NO: 4, human factor VIII 200-210]

CD1d binding motif / NKT cells detected by peptide-loaded tetramers (in words) (CD1d tetramers): major CD1d binding motif
Molecule: QTLHKFILLFA (homo sapiens) [SEQ ID NO: 3, human factor VIII 190-200]
Number of DX5/CD160 cells, CD4+ (NKT cells [1]; [3]): 2.2 ×10^3
Number of DX5/CD160 cells, CD8+ (NKT cells [1]; [3]): 0.8 ×10^3
Number of DX5/CD160 cells, CD4+ (NKT cells [1]; [4]): 47 ×10^3
Number of DX5/CD160 cells, CD8+ (NKT cells [1]; [4]): 4.1 ×10^3
Number of DX5/CD160 cells, CD4+ (NKT cells [1]; [5]): 0.2 ×10^3
Number of DX5/CD160 cells, CD8+ (NKT cells [1]; [5]): 0.1 ×10^3
Number of DX5/CD160 cells, CD4+ (NKT cells [1]; [6]): 39 ×10^3
Number of DX5/CD160 cells, CD8+ (NKT cells [1]; [6]): 3.5 ×10^3
expression of CD1d at the surface of U937 cells (in words) (U937 cells): did not increase
